# Experimental data published in patent US8981111B2 (priority 2008, dated 2015).
# Assay: log P (HPLC/MS data of the preparation examples)
# Conditions: HCOOH
row,Molecule,log P(HCOOH)
1,N-(6-{[({(3-bromo-4-methoxyphenyl)[3-chloro-5-(trifluoromethyl)pyridin-2-yl]methylene}amino)oxy]methyl}pyridin-2-yl)-3-methylbutanamide [Example 444],5.03
2,"2-methyl-N-{4-[({[(1-methyl-1H-imidazol-5-yl)(phenyl)methylene]amino}-oxy)methyl]-1,3-thiazol-2-yl}propanamide [Example 143]",1.63

# Same assay, conditions: HCOOH (formic acid)
row,Molecule,chromatographic logP
1,"Cn1cncc1C(=NOCc1cccc(N)n1)c1ccsc1 [Example 493, 6-[({[(1-methyl-1H-imidazol-5-yl)(3-thienyl)methylene]amino}oxy)methyl]pyridin-2-amine]",0.39
2,"Cc1nocc1C(=O)c1cccs1 [(3-methyl-1,2-oxazol-4-yl)(2-thienyl)methanone]",2.2
3,"Cc1cnc(C)c(C(=NO)c2ccccc2)n1 [1-(3,6-dimethylpyrazin-2-yl)-N-hydroxy-1-phenylmethanimine]",1.7
4,"Cc1cnc(C)c(C(C#N)c2ccccc2)n1 (centres unmarked) [(3,6-dimethylpyrazin-2-yl)(phenyl)acetonitrile]",2.28
5,CON(C)C(=O)c1cccs1 [N-methoxy-N-methylthiophene-2-carboxamide],1.44

# Same assay, conditions: HPLC (LC-MS) method [b]: pH 2.7, 0.1% formic acid in water and acetonitrile, linear gradient 10% to 95% acetonitrile; EEC directive 79/831 Annex V.A8
row,Molecule,log p
1,CCCCCCCCCC(=O)Nc1nc(CON=C(c2cccs2)c2cncn2C)cs1 [Example 454],2.86^[b]
2,Cn1ncnc1C(=NOCc1csc(NC(=O)Cc2ccccc2)n1)c1ncc(C(F)(F)F)cc1Cl [Example 482],3.27^[b]
3,N-(6-{[({(3-bromo-4-methoxyphenyl)[3-chloro-5-(trifluoromethyl)pyridin-2-yl]methylene}amino)oxy]methyl}pyridin-2-yl)-3-methylbutanamide [Example 444],1.69^[b]
4,CCC(C(=O)Nc1cccc(CON=C(c2cccs2)c2cncn2C)n1)c1ccccc1 (centres unmarked) [Example 455],2.2^[b]
5,CC(C)CC(=O)Nc1ccnc(CON=C(c2ncc(C(F)(F)F)cc2Cl)c2ncnn2C)n1 [Example 478],3.06^[b]
6,CC(C)CC(=O)Nc1nc(CON=C(c2cccs2)c2cncn2C)cs1 [Example 450],1.66^[b]
7,Cc1cccnc1C(=NOCc1csc(NC(=O)C(C)(C)C)n1)c1cc(C(F)(F)F)ccn1 [Example 487],3.44^[b]

# Same assay, conditions: LC-MS, method [b]: pH 2.7 with 0.1% formic acid in water and acetonitrile, linear gradient 10% to 95% acetonitrile
row,Molecule,log p
1,Cn1ncnc1C(=NOCc1cccc(CNC(=O)C(C)(C)C)n1)c1ccccc1 [Example 137],2.28^[b]
2,CC(C)CCC(=O)Nc1cccc(CON=C(c2ccccc2)c2nccn2C)n1 [Example 329],2.15^[b]
3,COCCOC(=O)Nc1cccc(CON=C(c2ccccc2)c2nccn2C)n1 [Example 339],1.34^[b]
4,Cn1ccnc1C(=NOCc1cccc(NC(=O)Cc2ccccc2Cl)n1)c1cccc(F)c1 [Example 291],2.8^[b]
5,COc1ccc(C(=NOCc2cccc(NC(=O)C(C)(C)C)n2)c2ncc(C(F)(F)F)cc2Cl)cc1Br [Example 359],5.2^[b]
6,Cc1ccc(C(=NOCc2cccc(NC(=O)C(C)(C)C)n2)c2ncnn2C)cc1 [Example 19],3.31^[b]
7,CCCCC(=O)Nc1cccc(CON=C(c2ccccc2)c2nc(C)cnc2C)n1 [Example 379],3.65^[b]
8,CC(C)C(=O)Nc1cccc(CON=C(c2ccccc2)c2cncn2C)n1 [Example 125],1.63^[b]
9,Cn1ncnc1C(=NOCc1cccc(NC(=O)CCc2ccccc2C(F)(F)F)n1)c1ccccc1 [Example 303],3.87^[b]
10,CCCCC#Cc1cccc(CON=C(c2ccccc2)c2nncn2C)n1 [Example 354],3.23^[b]
11,CCCCCC(=O)Nc1cccc(CON=C(c2ccc(C)cc2)c2ncnn2C)n1 [Example 18],3.71^[b]
12,Cn1ccnc1C(=NOCc1cccc(N)n1)c1ccccc1 [Example 11],0.36^[b]
13,"Cn1cncc1C(=NOCc1cccc(N)n1)c1ccccc1 (single isomer, unassigned) [Example 98]",0.29^[b]
14,Cn1ncnc1C(=NOCc1cccc(NC(=O)Cc2ccc(F)cc2)n1)c1ccccc1 [Example 294],3.15^[b]
15,Cn1ncnc1C(=NOCc1cccc(NC(=O)C2CC2)n1)c1ccccc1 [Example 27],2.41^[b]
16,CCCCCCOC(=O)Nc1cccc(CON=C(c2ccccc2)c2nc(C)cnc2C)n1 [Example 375],5.2^[b]
17,CCCCS(=O)(=O)Nc1cccc(CON=C(c2ccccc2)c2cnnn2C)n1 [Example 76],2.86^[b]
18,CCCCCOC(=O)N(C)c1cccc(CON=C(c2ccccc2)c2ncnn2C)n1 [Example 113],4.39^[b]
19,Cn1ncnc1C(=NOCc1ccc2ccccc2n1)c1ccccc1 [Example 51],2.51^[b]
20,CCCCCOC(=O)Nc1cccc(CON=C(c2ccc(C)cc2)c2ncnn2C)n1 [Example 44],4.31^[b]

row,Molecule,log p
1,CCCCC(=O)Nc1ccnc(CON=C(c2ccccc2)c2nccn2C)n1 [Example 59],1.95^[b]
2,Cn1ncnc1C(=NOCc1cccc(NC(=O)OCCCCCl)n1)c1ccccc1 [Example 92],3.39^[b]
3,CCCCCCCCC(=O)Nc1cccc(CON=C(c2ccc(OC)c(Br)c2)c2ncc(C(F)(F)F)cc2Cl)n1 [Example 366],6.65^[b]
4,Cn1nncc1C(=NOCc1cccc(NC(=O)Cc2ccccc2)n1)c1ccccc1 [Example 68],3.19^[b]
5,CCCCCOC(=O)Nc1cccc(CON=C(c2cccs2)c2ncnn2C)n1 [Example 394],3.82^[b]
6,CC(C)COC(=O)Nc1cccc(CON=C(c2ccccc2)c2nccn2C)n1 [Example 325],2.21^[b]
7,CCCCS(=O)(=O)N(c1cccc(CON=C(c2ccc(C)cc2)c2ncnn2C)n1)S(=O)(=O)CCCC [Example 78],4.51^[b]
8,COCC(=O)Nc1ccnc(CON=C(c2ccccc2)c2nccn2C)n1 [Example 53],1.2^[b]
9,CC(C)CCOC(=O)Nc1cccc(CON=C(c2ccccc2)c2ncnn2C)n1 [Example 317],3.9^[b]
10,CCCCCC(=O)Nc1nc(CON=C(c2ccccc2)c2cncn2C)cs1 [Example 116],2.08^[b]
11,CCCCSC(=O)Nc1cccc(CON=C(c2cccc(F)c2)c2nccn2C)n1 [Example 342],2.88^[b]
12,Cn1ccnc1C(=NOCc1nccc(NC(=O)C(C)(C)C)n1)c1ccccc1 [Example 12],1.77^[b]
13,"Cn1cncc1C(=NOCc1cccc(NC(=O)C(C)(C)C)n1)c1ccccc1 (single isomer, unassigned) [Example 123]",2.1^[b]
14,CCCCCC(=O)Nc1ccnc(CON=C(c2cccs2)c2ncnn2C)n1 [Example 405],3^[b]
15,2-[({[(1-methyl-1H-imidazol-2-yl)(phenyl)methylene]amino}oxy)methyl]pyrimidin-4-amine [Example 7],1.26^[b]
16,COc1ccccc1CCC(=O)Nc1cccc(CON=C(c2ccccc2)c2ncnn2C)n1 [Example 299],3.44^[b]
17,Cn1ncnc1C(=NOCc1nccc(NC(=O)Cc2ccccc2)n1)c1cccs1 [Example 408],2.64^[b]
18,COc1ccc(CCC(=O)Nc2cccc(CON=C(c3ccccc3)c3ncnn3C)n2)cc1 [Example 297],3.25^[b]
19,Cc1cc(C(F)(F)F)nn1CC(=O)Nc1cccc(CON=C(c2ccccc2)c2nccn2C)n1 [Example 279],2.61^[b]

# Same assay, conditions: LC-MS, method [c]: pH 7.8 with 0.001 molar ammonium hydrogen carbonate solution in water, linear gradient 10% to 95% acetonitrile
row,Molecule,log p
1,Cn1ccnc1C(=NOCc1cccc(N)n1)c1ccccc1 [Example 11],1.89^[c];

# Same assay, conditions: Neutral
row,Molecule,log P(Neutral)
1,2-[({[(1-methyl-1H-imidazol-2-yl)(phenyl)methylene]amino}oxy)methyl]pyrimidin-4-amine [Example 7],1.42

# Same assay, conditions: method [b]: LC-MS at pH 2.7, 0.1% formic acid in water / acetonitrile, linear gradient 10% to 95% acetonitrile
row,Molecule,log p
1,Cc1nnsc1C(=NOCc1cccc(N)n1)c1ccccc1 [Example 215],1.63^[b]
2,CCCCCC(=O)Nc1cccc(CON=C(c2ccccc2)c2cnc(C)n2C)n1 [Example 212],2.08^[b]
3,"Cc1nc(C(=NOCc2cccc(NC(=O)Cc3ccccc3)n2)c2ccccc2)cs1 (single isomer, unassigned) [Example 173]",3.61^[b]
4,Cn1nc(C(=NOCc2cccc(NC(=O)C(C)(C)C)n2)c2ccccc2)n(C)c1=O [Example 147],2.86^[b]
5,CCC(C(=O)Nc1cccc(CON=C(c2ccccc2)c2cncn2C)n1)c1ccccc1 (centres unmarked) [Example 259],2.3^[b]
6,Cn1nc(C(F)(F)F)nc1C(=NOCc1cccc(N2C(=O)c3ccccc3C2=O)n1)c1ccccc1 [Example 183],3.99^[b]
7,COc1cccc(CC(=O)Nc2cccc(CON=C(c3ccccc3)c3nccn3C)n2)c1 [Example 267],2.37^[b]
8,CCCCCOC(=O)Nc1cccc(CON=C(c2ccccc2)c2csc(C)n2)n1 [Example 195],4.92^[b]
9,Cn1ccnc1C(=NOCc1cccc(NC(=O)Cc2ccccc2F)n1)c1cccc(F)c1 [Example 276],2.59^[b]
10,"2-methyl-N-{4-[({[(1-methyl-1H-imidazol-5-yl)(phenyl)methylene]amino}-oxy)methyl]-1,3-thiazol-2-yl}propanamide [Example 143]",1.11^[b]
11,"Cc1nc(C(=NOCc2cccc(NC(=O)CC(C)C)n2)c2ccccc2)cs1 (single isomer, unassigned) [Example 171]",3.46^[b]
12,Cn1c(C(=NOCc2nccc(N(C(=O)C3CC3)C(=O)C3CC3)n2)c2ccccc2)cnc1C(=O)C1CC1 [Example 260],3.73^[b]
13,"CCCCCC(=O)Nc1cccc(CON=C(c2ccccc2)c2csc(C)n2)n1 (single isomer, unassigned) [Example 189]",4.26^[b]
14,Cn1ncnc1C(=NOCc1cccc(NC(=O)C2CCCCC2)n1)c1ccccc1 [Example 248],3.39^[b]
15,Cn1ncnc1C(=NOCc1cccc(NC(=O)CSc2ccccc2)n1)c1ccccc1 [Example 250],3.33^[b]
16,Cn1cnnc1C(=NOCc1cccc(N2C(=O)c3ccccc3C2=O)n1)c1ccccc1 [Example 144],2.3^[b]
17,Cn1nc(C(F)(F)F)nc1C(=NOCc1cccc(NC(=O)Cc2ccccc2)n1)c1ccccc1 [Example 175],4.24^[b]
18,CCCCCOC(=O)Nc1cccc(CON=C(c2ccccc2)c2cncn2C)n1 [Example 253],2.39^[b]

# Same assay, conditions: reversed phase HPLC column, pH 2.7
row,Molecule,chromatographic logP
1,"Cc1ncoc1C(=NOCc1cccc(N2C(=O)c3ccccc3C2=O)n1)c1ccccc1 [Example 352, 2-{6-[({[(4-methyl-1,3-oxazol-5-yl)(phenyl)methylene]amino}oxy)methyl]pyridin-2-yl}-1H-isoindole-1,3(2H)-dione]",3.25
